According to US12139464B2, “Simplified structural mimetics of AIPS as quorum sensing inhibitors” (Wisconsin Alumni Research Foundation, priority 2016, dated 2024):
“Also recorded” adds a separate entry of the source. Like-named read-outs stand apart in the source and are kept apart here. Positions of bridges follow the written chain, without caps; N, C: chain ends. Non-standard residues stand in square brackets, D forms with d. Residues, ends and D or L forms follow the SMILES beside them. Phe(3-Cl) = N[C@@H](Cc1cccc(Cl)c1)C(=O)O; Phe(4-Cl) = N[C@@H](Cc1ccc(Cl)cc1)C(=O)O; Phe(3-F) = N[C@@H](Cc1cccc(F)c1)C(=O)O; Cha = N[C@@H](CC1CCCCC1)C(=O)O; AEEA = NCCOCCOCC(=O)O; Dap = NC[CH](N)C(=O)O; Aoc = NCCCCCCCC(=O)O

What was measured:
[1] = biological target: S. aureus AgrC in group-I (Staphylococcus aureus, UniProt A0A0H2XKA3); experiment: AgrC inhibition YFP reporter gene assay, S. aureus group-I (AH1677); type: cell-based; details: for AgrC activity, preliminary screening: 10 μM where stated, YFP fluorescence relative to 1% DMSO control
Protocol: (§1) Reporter Gene Assays: The peptidomimetics were assayed for AgrC I-IV inhibition using the four YFP reporter strains listed in Table 1. Peptide stock solutions were diluted with DMSO in serial dilutions, and 2 μL of the diluted solution was added to each of the wells in a black, clear-bottom 96-well microtiter plate (Costar). An overnight culture of S. aureus YFP strain (Table 1) was diluted 1:50 with fresh BHI (pH 7.35). A […] of diluted culture was added to each well of the microtiter plate containing peptide (resulting in a 1% DMSO solution). Plates were incubated at 37° C. with shaking at 200 rpm for 24 h. Fluorescence (excitation 500 nm/emission 540 nm) and optical density at 600 nm (OD600) of each well were then recorded using a BioTek Synergy 2 plate reader. […] Full dose response curves are provided in Figures S3A-D, S4A-D, S5A-D, S6A-D and S7A-F.
(§2) A first compound library of AIP mimetics was screened for AgrC modulatory activity in all four groups of S. aureus using strains containing yfp reporter. These strains are summarized in Table 1, and include the multidrug-resistant strain USA300 LAC.[17] In these S. aureus reporters, binding of the native AIP to AgrC activates YFP production and can be measured using fluorescence. Thus, compounds capable of inhibiting native AIP binding produce a reduction in fluorescence. Preliminary compound screening was performed at 10 μM in each strain; the full results of preliminary screening are shown in FIGS. 4A-4D. Key findings from these initial screens are summarized here. To simplify the discussion, the full library will be described as three smaller sub-libraries. In the first sub-library (termed nxLX), there is a linker with n=x methylenes, residue 3 is Leu, and residue 4 (X) is Leu, Ile, or Phe (FIG. 2A). The second and third sub-libraries (nxIX and nxFX) are identical to the first sub-library except that there is an Ile or Phe at residue 3, respectively.

[2] = biological target: S. aureus AgrC in group-III (Staphylococcus aureus, UniProt O33590); experiment: AgrC inhibition YFP reporter gene assay, S. aureus group-III (AH1747); type: cell-based; details: for AgrC activity, preliminary screening: 10 μM where stated, YFP fluorescence relative to 1% DMSO control
Protocol: as §1, §2

[3] = biological target: S. aureus AgrC in group-II (Staphylococcus aureus, UniProt O33587); experiment: AgrC inhibition YFP reporter gene assay, S. aureus group-II (AH430); type: cell-based; details: for AgrC activity, preliminary screening: 10 μM where stated, YFP fluorescence relative to 1% DMSO control
Protocol: as §1, §2

Solubility in water = type: physicochemical
[4] = biological target: S. aureus AgrC in group-IV (Staphylococcus aureus, UniProt Q309Z2); experiment: AgrC inhibition YFP reporter gene assay, S. aureus group-IV (AH1872); type: cell-based; details: for AgrC activity, preliminary screening: 10 μM where stated, YFP fluorescence relative to 1% DMSO control
Protocol: as §1, §2

[5] = read-out: Group-I IC50, 95% CI, YFP reporter strain, 24 h, value (95% CI)
[6] = read-out: Group-III IC50, 95% CI, YFP reporter strain, 24 h, value (95% CI)
[7] = read-out: Group-II IC50, 95% CI, YFP reporter strain, 24 h, value (95% CI)
[8] = read-out: Group-IV IC50, 95% CI, YFP reporter strain, 24 h, value (95% CI)
[9] = read-out: IC50 Group-I, Table 3, against S. aureus AgrC
[10] = read-out: IC50 Group-III, Table 3, against S. aureus AgrC
[11] = read-out: IC50 Group-II, Table 3, against S. aureus AgrC
[12] = read-out: IC50 Group-IV, Table 3, against S. aureus AgrC

SMILES	IC50 [1, 5] [nM]	IC50 [2, 6] [nM]	IC50 [3, 7] [nM]	water solubility (Solubility in water)	IC50 [4, 8] [nM]	IC50 [1, 9] [nM]	IC50 [2, 10] [nM]	IC50 [3, 11] [nM]	IC50 [4, 12] [nM]	AgrC activity, preliminary screening ([1]; group-I)	AgrC activity, preliminary screening ([2]; group-III)	AgrC activity, preliminary screening ([3]; group-II)	AgrC activity, preliminary screening ([4]; group-IV)	also measured
CC(=O)NC1CSC(=O)C(Cc2ccccc2)NC(=O)C(Cc2ccccc2)NC(=O)CCCCCCCCNC1=O (stereo not shown) [n8FF]	468	125	479	relatively low water solubilities; also recorded: less soluble than AIP-III D4A in water	3490	–	–	–	–	–	–	–	–	less potent than n7FF ([2]; group-III): 4 fold; less potent than n7FF ([4]; group-IV): 4 fold
CC(=O)N[C@H]1CSC(=O)[C@H](Cc2ccccc2)NC(=O)[C@H](CC2CCCCC2)NC(=O)COCCOCCNC1=O [n7OChaF] (Ac-C[AEEA][Cha]F; thioester 1-C)	–	–	–	–	–	998	205	790	1080	–	–	–	–	–
CC(=O)N[C@H]1CSC(=O)[C@H](Cc2ccc(Cl)cc2)NC(=O)[C@H](Cc2ccccc2)NC(=O)COCCOCCNC1=O [n7OF4clF] (Ac-C[AEEA]F[Phe(4-Cl)]; thioester 1-C)	–	–	–	–	–	2590	2480	113	> 5000	–	–	–	–	–
CC(=O)N[C@H]1CSC(=O)[C@H](Cc2ccccc2)NC(=O)[C@H](Cc2ccccc2)NC(=O)CCCCCCCNC1=O [n7FF] (Ac-C[Aoc]FF; thioester 1-C)	340	34.8	495	relatively low water solubilities; also recorded: less soluble than AIP-III D4A in water	985	–	–	–	–	minimal levels	minimal levels	minimal levels	minimal levels	IC50 relative to that of t-AIP-II ([1]; group-I): 3-7 fold; IC50 relative to that of t-AIP-II ([2]; group-III): 3-7 fold; IC50 relative to that of t-AIP-II ([3]; group-II): 3-7 fold; IC50 relative to that of t-AIP-II ([4]; group-IV): 3-7 fold
CC(=O)N[C@H]1CSC(=O)[C@H](Cc2ccccc2)NC(=O)[C@H](Cc2ccccc2)NC(=O)COCCOCCNC1=O [n7OFF] (Ac-C[AEEA]FF; thioester 1-C)	181	332	583	–	5940	181	332	583	5940	approximately as active as t-AIP-II, n7FF, and n8FF	modestly active	approximately as active as t-AIP-II, n7FF, and n8FF	modestly active	more potent than n7FF ([1]; group-I): ~2 fold; more soluble in water than n7FF (Solubility in water): approximately 100 fold
CC(=O)N[C@H]1CSC(=O)[C@H](Cc2cccc(F)c2)NC(=O)[C@H](Cc2ccccc2)NC(=O)COCCOCCNC1=O [n7OF3fF] (Ac-C[AEEA]F[Phe(3-F)]; thioester 1-C)	–	–	–	–	–	40	171	1210	> 5000	–	–	–	–	–
CC(=O)N[C@H]1CSC(=O)[C@H](Cc2cccc(Cl)c2)NC(=O)[C@H](Cc2ccccc2)NC(=O)COCCOCCNC1=O [n7OF3clF] (Ac-C[AEEA]F[Phe(3-Cl)]; thioester 1-C)	–	–	–	–	–	225	1140	217	–	–	–	–	–	–
CC(=O)N[C@H]1CSC(=O)[C@H](Cc2cccc(F)c2)NC(=O)[C@H](CC2CCCCC2)NC(=O)COCCOCCNC1=O [n7OCha3fF] (Ac-C[AEEA][Cha][Phe(3-F)]; thioester 1-C)	–	–	–	–	–	109	35	1380	597	–	–	–	–	–
CC(=O)N[C@H]1CNC(=O)[C@H](Cc2ccccc2)NC(=O)[C@H](Cc2ccccc2)NC(=O)CCCCCCCCNC1=O [n8FF amide]	4740	2610	1340	markedly more soluble in water than their parent thiolactones	–	–	–	–	–	far less active	minimal levels	minimal levels	virtually no inhibition	–
CC(=O)N[C@H]1CSC(=O)[C@H](Cc2cccc(F)c2)NC(=O)[C@H](CC2CCCCC2)NC(=O)CCCCCCCNC1=O [n7Cha3fF] (Ac-C[Aoc][Cha][Phe(3-F)]; thioester 1-C)	–	–	–	–	–	429	19	2340	1160	–	–	–	–	–
CC(=O)NC1CNC(=O)C(Cc2ccccc2)NC(=O)C(Cc2ccccc2)NC(=O)CCCCCCCNC1=O (stereo not shown) [n7FF amide] (Ac-[Dap][Aoc]FF; lactam 1-C; configuration not given here)	3940	573	2200	markedly more soluble in water than their parent thiolactones	–	–	–	–	–	far less active	minimal levels	minimal levels	virtually no inhibition	–
CC(=O)NC1CNC(=O)C(Cc2ccccc2)NC(=O)C(Cc2ccccc2)NC(=O)COCCOCCNC1=O (stereo not shown) [n7OFF amide] (Ac-[Dap][AEEA]FF; lactam 1-C; configuration not given here)	> 10000	> 10000	> 10000	markedly more soluble in water than their parent thiolactones	> 10000	–	–	–	–	no significant activity	no significant activity	no significant activity	no significant activity	–
